Assay results taken from US10213433B2 (AbbVie Inc., priority 2010, dated 2019).

Target: Bcl-2 protein (Homo sapiens (Human), UniProt P10415)
Assay: Bcl-2 binding TR-FRET (Time-Resolved Fluorescence-Resonance-Energy-Transfer) assay
Settings: inhibition constant for binding to Bcl-2 protein
From the text: The smaller the Ki value, the greater is the binding affinity.

Chain of Bcl-2 protein (P10415 whole entry): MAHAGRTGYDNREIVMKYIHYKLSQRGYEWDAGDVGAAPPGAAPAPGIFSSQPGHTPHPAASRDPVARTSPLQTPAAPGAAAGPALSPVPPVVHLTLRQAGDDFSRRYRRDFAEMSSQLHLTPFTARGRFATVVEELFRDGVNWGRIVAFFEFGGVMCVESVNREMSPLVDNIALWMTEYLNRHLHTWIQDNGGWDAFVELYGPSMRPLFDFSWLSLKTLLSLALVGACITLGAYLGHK

With `CC1(C)CCC(CN2CCN(c3ccc(C(=O)NS(=O)(=O)c4ccc(N[C@@H]5CCN(S(C)(=O)=O)C5)c([N+](=O)[O-])c4)c(Oc4cnc5[nH]ccc5c4)c3)CC2)=C(c2ccc(Cl)cc2)C1` [Compound 149, 4-(4-{[2-(4-chlorophenyl)-4,4-dimethylcyclohex-1-en-1-yl]methyl}piperazin-1-yl)-N-[(4-{[(3R)-1-(methylsulfonyl)pyrrolidin-3-yl]amino}-3-nitrophenyl)sulfonyl]-2-(1H-pyrrolo[2,3-b]pyridin-5-yloxy)benzamide] as the compound, how does the Ki read?
The Ki was < 0.01 nM.

Which Ki does the source give for `CC1(C)CCCC(CN2CCN(c3ccc(C(=O)NS(=O)(=O)c4ccc(NCC5CCOCC5)c([N+](=O)[O-])c4)c(Oc4cnc5[nH]ccc5c4)c3)CC2)=C1c1ccc(Cl)cc1` [Compound 150, 4-(4-{[2-(4-chlorophenyl)-3,3-dimethylcyclohex-1-en-1-yl]methyl}piperazin-1-yl)-N-({3-nitro-4-[(tetrahydro-2H-pyran-4-ylmethyl)amino]phenyl}sulfonyl)-2-(1H-pyrrolo[2,3-b]pyridin-5-yloxy)benzamide] here?
Its Ki is < 0.01 nM.

`CC1(C)CCC(CN2CCN(c3ccc(C(=O)NS(=O)(=O)c4ccc(NCC5CCN(S(C)(=O)=O)C5)c([N+](=O)[O-])c4)c(Oc4cnc5[nH]ccc5c4)c3)CC2)=C(c2ccc(Cl)cc2)C1` (stereo not drawn) [Compound 152, 4-(4-{[2-(4-chlorophenyl)-4,4-dimethylcyclohex-1-en-1-yl]methyl}piperazin-1-yl)-N-{[4-({[1-(methylsulfonyl)pyrrolidin-3-yl]methyl}amino)-3-nitrophenyl]sulfonyl}-2-(1H-pyrrolo[2,3-b]pyridin-5-yloxy)benzamide] was tested. Which Ki did it give?
Its Ki is < 0.01 nM.

For `CC(=O)N1CCC(CNc2ccc(S(=O)(=O)NC(=O)c3ccc(N4CCN(CC5=C(c6ccc(Cl)cc6)CC(C)(C)CC5)CC4)cc3Oc3cnc4[nH]ccc4c3)cc2[N+](=O)[O-])C1` (stereo not drawn) [Compound 153, N-[(4-{[(1-acetylpyrrolidin-3-yl)methyl]amino}-3-nitrophenyl)sulfonyl]-4-(4-{[2-(4-chlorophenyl)-4,4-dimethylcyclohex-1-en-1-yl]methyl}piperazin-1-yl)-2-(1H-pyrrolo[2,3-b]pyridin-5-yloxy)benzamide], which Ki is on record?
The Ki was < 0.01 nM.

Which Ki does the source give for `CC(=O)N1CC[C@@H](Nc2ccc(S(=O)(=O)NC(=O)c3ccc(N4CCN(CC5=C(c6ccc(Cl)cc6)CC(C)(C)CC5)CC4)cc3Oc3cnc4[nH]ccc4c3)cc2[N+](=O)[O-])C1` [Compound 154, N-[(4-{[(3R)-1-acetylpyrrolidin-3-yl]amino}-3-nitrophenyl)sulfonyl]-4-(4-{[2-(4-chlorophenyl)-4,4-dimethylcyclohex-1-en-1-yl]methyl}piperazin-1-yl)-2-(1H-pyrrolo[2,3-b]pyridin-5-yloxy)benzamide] here?
Its Ki is < 0.01 nM.

Which Ki does the source give for `CC1(C)CCC(CN2CCN(c3ccc(C(=O)NS(=O)(=O)c4ccc(NC[C@@H]5CC[C@@H](O)C5)c([N+](=O)[O-])c4)c(Oc4cnc5[nH]ccc5c4)c3)CC2)=C(c2ccc(Cl)cc2)C1` [Compound 156, 4-(4-{[2-(4-chlorophenyl)-4,4-dimethylcyclohex-1-en-1-yl]methyl}piperazin-1-yl)-N-{[4-({[(1R,3R)-3-hydroxycyclopentyl]methyl}amino)-3-nitrophenyl]sulfonyl}-2-(1H-pyrrolo[2,3-b]pyridin-5-yloxy)benzamide] here?
Its Ki is < 0.01 nM.

`CC1(C)CCC(CN2CCN(c3ccc(C(=O)NS(=O)(=O)c4ccc(NC[C@H]5CC[C@H](O)C5)c([N+](=O)[O-])c4)c(Oc4cnc5[nH]ccc5c4)c3)CC2)=C(c2ccc(Cl)cc2)C1` [Compound 157, 4-(4-{[2-(4-chlorophenyl)-4,4-dimethylcyclohex-1-en-1-yl]methyl}piperazin-1-yl)-N-{[4-({[(1S,3S)-3-hydroxycyclopentyl]methyl}amino)-3-nitrophenyl]sulfonyl}-2-(1H-pyrrolo[2,3-b]pyridin-5-yloxy)benzamide] was tested. Which Ki did it give?
The Ki was < 0.01 nM.

Which Ki does the source give for `CC1(C)CCC(CN2CCN(c3ccc(C(=O)NS(=O)(=O)c4ccc(NC[C@H]5CC[C@@H](O)C5)c([N+](=O)[O-])c4)c(Oc4cnc5[nH]ccc5c4)c3)CC2)=C(c2ccc(Cl)cc2)C1` [Compound 158, 4-(4-{[2-(4-chlorophenyl)-4,4-dimethylcyclohex-1-en-1-yl]methyl}piperazin-1-yl)-N-{[4-({[(1S,3R)-3-hydroxycyclopentyl]methyl}amino)-3-nitrophenyl]sulfonyl}-2-(1H-pyrrolo[2,3-b]pyridin-5-yloxy)benzamide] here?
The Ki was < 0.01 nM.

Which Ki does the source give for `CC1(C)CCC(CN2CCN(c3ccc(C(=O)NS(=O)(=O)c4ccc(NC[C@@H]5CC[C@H](O)C5)c([N+](=O)[O-])c4)c(Oc4cnc5[nH]ccc5c4)c3)CC2)=C(c2ccc(Cl)cc2)C1` [Compound 159, 4-(4-{[2-(4-chlorophenyl)-4,4-dimethylcyclohex-1-en-1-yl]methyl}piperazin-1-yl)-N-{[4-({[(1R,3S)-3-hydroxycyclopentyl]methyl}amino)-3-nitrophenyl]sulfonyl}-2-(1H-pyrrolo[2,3-b]pyridin-5-yloxy)benzamide] here?
Its Ki is < 0.01 nM.

With `CC1(C)CCC(CN2CCN(c3ccc(C(=O)NS(=O)(=O)c4ccc(N[C@H]5CCCNC5=O)c([N+](=O)[O-])c4)c(Oc4cnc5[nH]ccc5c4)c3)CC2)=C(c2ccc(Cl)cc2)C1` [Compound 160, 4-(4-{[2-(4-chlorophenyl)-4,4-dimethylcyclohex-1-en-1-yl]methyl}piperazin-1-yl)-N-[(3-nitro-4-{[(3S)-2-oxopiperidin-3-yl]amino}phenyl)sulfonyl]-2-(1H-pyrrolo[2,3-b]pyridin-5-yloxy)benzamide] as the compound, how does the Ki read?
Its Ki is < 0.01 nM.

How did the Ki turn out when `CC1(C)CCC(CN2CCN(c3ccc(C(=O)NS(=O)(=O)c4ccc(NCC5CN(C(CF)CF)C5)c([N+](=O)[O-])c4)c(Oc4cnc5[nH]ccc5c4)c3)CC2)=C(c2ccc(Cl)cc2)C1` [Compound 161, 4-(4-{[2-(4-chlorophenyl)-4,4-dimethylcyclohex-1-en-1-yl]methyl}piperazin-1-yl)-N-({4-[({1-[2-fluoro-1-(fluoromethyl)ethyl]azetidin-3-yl}methyl)amino]-3-nitrophenyl}sulfonyl)-2-(1H-pyrrolo[2,3-b]pyridin-5-yloxy)benzamide] was run?
The Ki was < 0.01 nM.

Which Ki does the source give for `CC1(C)CCC(CN2CCN(c3ccc(C(=O)NS(=O)(=O)c4ccc(NCC5CN(C6COC6)C5)c([N+](=O)[O-])c4)c(Oc4cnc5[nH]ccc5c4)c3)CC2)=C(c2ccc(Cl)cc2)C1` [Compound 162, 4-(4-{[2-(4-chlorophenyl)-4,4-dimethylcyclohex-1-en-1-yl]methyl}piperazin-1-yl)-N-[(3-nitro-4-{[(1-oxetan-3-ylazetidin-3-yl)methyl]amino}phenyl)sulfonyl]-2-(1H-pyrrolo[2,3-b]pyridin-5-yloxy)benzamide] here?
The Ki was < 0.01 nM.

`CC1(C)CCC(CN2CCN(c3ccc(C(=O)NS(=O)(=O)c4ccc(NCC5CCN(C6COC6)CC5)c([N+](=O)[O-])c4)c(Oc4cnc5[nH]ccc5c4)c3)CC2)=C(c2ccc(Cl)cc2)C1` [Compound 163, 4-(4-{[2-(4-chlorophenyl)-4,4-dimethylcyclohex-1-en-1-yl]methyl}piperazin-1-yl)-N-[(3-nitro-4-{[(1-oxetan-3-ylpiperidin-4-yl)methyl]amino}phenyl)sulfonyl]-2-(1H-pyrrolo[2,3-b]pyridin-5-yloxy)benzamide] was tested. Which Ki did it give?
The Ki was < 0.01 nM.

`CC1(C)CCC(CN2CCN(c3ccc(C(=O)NS(=O)(=O)c4ccc(NCC5CCN(C6CC6)CC5)c([N+](=O)[O-])c4)c(Oc4cnc5[nH]ccc5c4)c3)CC2)=C(c2ccc(Cl)cc2)C1` [Compound 164, 4-(4-{[2-(4-chlorophenyl)-4,4-dimethylcyclohex-1-en-1-yl]methyl}piperazin-1-yl)-N-[(4-{[(1-cyclopropylpiperidin-4-yl)methyl]amino}-3-nitrophenyl)sulfonyl]-2-(1H-pyrrolo[2,3-b]pyridin-5-yloxy)benzamide] was tested. Which Ki did it give?
Its Ki is < 0.01 nM.

`CC1(C)CCC(CN2CCN(c3ccc(C(=O)NS(=O)(=O)c4ccc(NCC5CN(CCF)CCO5)c([N+](=O)[O-])c4)c(Oc4cnc5[nH]ccc5c4)c3)CC2)=C(c2ccc(Cl)cc2)C1` (stereo not drawn) [Compound 165, 4-(4-{[2-(4-chlorophenyl)-4,4-dimethylcyclohex-1-en-1-yl]methyl}piperazin-1-yl)-N-{[4-({[4-(2-fluoroethyl)morpholin-2-yl]methyl}amino)-3-nitrophenyl]sulfonyl}-2-(1H-pyrrolo[2,3-b]pyridin-5-yloxy)benzamide] was tested. Which Ki did it give?
Its Ki is < 0.01 nM.

With `CC1(C)CCC(CN2CCN(c3ccc(C(=O)NS(=O)(=O)c4ccc(NCC5CN(CC(F)F)CCO5)c([N+](=O)[O-])c4)c(Oc4cnc5[nH]ccc5c4)c3)CC2)=C(c2ccc(Cl)cc2)C1` (stereo not drawn) [Compound 166, 4-(4-{[2-(4-chlorophenyl)-4,4-dimethylcyclohex-1-en-1-yl]methyl}piperazin-1-yl)-N-{[4-({[4-(2,2-difluoroethyl)morpholin-2-yl]methyl}amino)-3-nitrophenyl]sulfonyl}-2-(1H-pyrrolo[2,3-b]pyridin-5-yloxy)benzamide] as the compound, how does the Ki read?
The Ki was < 0.01 nM.

With `CC1(C)CCC(CN2CCN(c3ccc(C(=O)NS(=O)(=O)c4ccc(OCC5(F)CCN(C6COC6)CC5)c([N+](=O)[O-])c4)c(Oc4cnc5[nH]ccc5c4)c3)CC2)=C(c2ccc(Cl)cc2)C1` [Compound 167, 4-(4-{[2-(4-chlorophenyl)-4,4-dimethylcyclohex-1-en-1-yl]methyl}piperazin-1-yl)-N-({4-[(4-fluoro-1-oxetan-3-ylpiperidin-4-yl)methoxy]-3-nitrophenyl}sulfonyl)-2-(1H-pyrrolo[2,3-b]pyridin-5-yloxy)benzamide] as the compound, how does the Ki read?
The Ki was < 0.01 nM.

Which Ki does the source give for `CC1(C)CCC(CN2CCN(c3ccc(C(=O)NS(=O)(=O)c4ccc(OC[C@@H]5CC(F)(F)CN5C5COC5)c([N+](=O)[O-])c4)c(Oc4cnc5[nH]ccc5c4)c3)CC2)=C(c2ccc(Cl)cc2)C1` [Compound 168, 4-(4-{[2-(4-chlorophenyl)-4,4-dimethylcyclohex-1-en-1-yl]methyl}piperazin-1-yl)-N-[(4-{[(2S)-4,4-difluoro-1-oxetan-3-ylpyrrolidin-2-yl]methoxy}-3-nitrophenyl)sulfonyl]-2-(1H-pyrrolo[2,3-b]pyridin-5-yloxy)benzamide] here?
The Ki was < 0.01 nM.
